Source: PubChem BioAssay AID1963976 (Molecular Pharmacology Branch, DTP, NCI, 2024)
“And” between values parts separate entries of the source, which are not always exact repeats. Equal entries are not always repeated.

System: 435261-313-R-J1-PDC tumor spheroid viability
Assay: Anticancer human tumor 435261-313-R-J1-PDC patient-derived colon adenocarcinoma cell line growth inhibition [PI3K]
Settings: spheroids with HUVEC and MSC; for viability, T/C: stronger effect = lower value
Text: Combinatorial screen of targeted agents with the PI3K inhibitors inavolisib, alpelisib, duvelisib, and copanlisib in multi-cell type tumor spheroids
A high-throughput screen of multi-cell type tumor spheroids was designed to identify active combinations of targeted small molecules and PI3K pathway inhibitors. Complex spheroids include a stromal component modeled by human endothelial cells (HUVEC) and fibroblasts modeled by human mesenchymal stem cells (MSCs). The concentration ranges selected for each drug and investigational agent were based upon clinically achievable concentrations if the clinical Cmax of the agent was known.
Compounds. The drugs and investigational agents: inavolisib (NSC800729), alpelisib (NSC765974), duvelisib (NSC772469), copanlisib (NSC816437), ipatasertib (NSC767898), afuresertib (NSC778305), talazoparib (NSC767125), sapanisertib (NSC764658), selumetinib (NSC741078), tovorafenib (DAY101, NSC766906), vemurafenib (NSC761431), ravoxertinib (NSC781343), sotorasib (NSC818433), MRTX1133 (NSC 836407), abemaciclib (NSC 768073), palbociclib (NSC758247), venetoclax (NSC 766270), SY5609 (NSC837396), enzalutamide (NSC755605), and darolutamide (NSC825331), were obtained from the National Cancer Institute (NCI) Developmental Therapeutics Program Chemical Repository. The FDA-approved anticancer drug set is available from the NCI Developmental Therapeutics Program. […] The stock solutions were prepared in dimethyl sulfoxide (DMSO, Sigma-Aldrich, St. Louis, MO, cat. D2650) at 800-fold the tested concentration and stored at -70 degrees C prior to their use. All drugs and investigational agents were tested over a range starting from a high concentration at or near the clinical Cmax and decreasing in half-log increments. If the clinical Cmax for an agent had not been determined, the highest concentration tested was 10 microM.
Cell Culture. All cells were maintained in an incubator at 37 degrees C and 5% CO2 with 95% humidity. The PDC lines were cultured according to standard operating procedures established by the NCI PDMR (https://pdmr.cancer.gov/sops/default.htm). All PDCs were thawed and cultured in Matrigel-coated flasks prepared with a working solution of 1X Ham's F-12 nutrient mix, without supplementation (Invitrogen, Waltham, MA, cat. 11765054), 100 U/mL penicillin-streptomycin (Invitrogen, cat. 15140122), and 2.5% Matrigel (Corning Inc., Corning, NY, cat. 354248) for the first three passages. The 354836-022-R-J1-PDC, 475296-252-R-J1-PDC, and 997726-040-R-J2-PDC lines were cultured in 6A media, which includes advanced DMEM/F-12 (Thermo Fisher Scientific, cat. 12634028), 10 mM HEPES (Thermo Fisher Scientific, cat. 15630080), 1X GlutaMAX supplement (Thermo Fisher Scientific, cat. 35050061), 0.1 mg/mL primocin (InvivoGen, San Diego, CA, cat. ant-pm-2), 10% defined fetal bovine serum, heat inactivated (HyClone Laboratories Inc., Logan, UT, cat. SH30070.03HI), 50% L-WRN conditioned media (ATCC, cat. CRL-3276), 1.25 mM N-Acetyl-L-cysteine (Sigma-Aldrich, cat. A9165), 10 mM nicotinamide (Sigma-Aldrich, cat. N0636), 1X B-27 supplement (Thermo Fisher Scientific, cat. 17504044), 1X N-2 supplement (Thermo Fisher Scientific, cat. 17502048), and 10 microM Y-27632 dihydrochloride (Tocris Bioscience, Bristol, United Kingdom, cat. 1254). The 624824-186-R-J2-PDC line was cultured in 6C/Colon 1B media, which includes all 6A media components plus 50 ng/mL human EGF recombinant protein (Thermo Fisher Scientific, cat. PHG0311). […]
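Also: spheroids exposed to compounds for 7 days.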

Q: With `CC(C)NCC(C(=O)N1CCN(c2ncnc3c2C(C)CC3O)CC1)c1ccc(Cl)cc1` (stereo unspecified) + COc1c(OCCCN2CCOCC2)ccc2c3n(c(=NC(=O)c4cnc(N)nc4)nc12)CCN3 as the compound, how does the IC50 (curve of first compound, second compound 0.00316 µM) read?
A: The IC50 was 765 nM.

Q: What about the IC50 (curve of first compound, second compound 0.01 µM) of the same compound?
A: The IC50 was 664 nM.

Q: What about the IC50 (curve of first compound, second compound 0.0316 µM) of the same compound?
A: The IC50 was less than 31.6 nM.

Q: And the IC50 (curve of first compound, second compound 0.1 µM)?
A: The IC50 was less than 31.6 nM.

Q: What about the IC50 (curve of first compound, second compound 0.316 µM) of the same compound?
A: Its IC50 is less than 31.6 nM.

Q: What about the IC50 (curve of first compound, second compound 1 µM) of the same compound?
A: Its IC50 is less than 31.6 nM.

Q: And the viability, T/C (second compound 0.00316 µM, first compound 0.0316 µM)?
A: The viability, T/C was 77.5%.

Q: And the viability, T/C (second compound 0.00316 µM, first compound 0.1 µM)?
A: The viability, T/C was 57.4%.

Q: And the viability, T/C (second compound 0.00316 µM, first compound 0.316 µM)?
A: The viability, T/C was 67.4%.

Q: What about the viability, T/C (second compound 0.00316 µM, first compound 1 µM) of the same compound?
A: The viability, T/C was 45%.

Q: And the viability, T/C (second compound 0.00316 µM, first compound 3.16 µM)?
A: The viability, T/C was 25.9%.

Q: What about the viability, T/C (second compound 0.00316 µM, first compound 10 µM) of the same compound?
A: The viability, T/C was 18.1%.

Q: What about the viability, T/C (second compound 0.01 µM, first compound 0.0316 µM) of the same compound?
A: The viability, T/C was 35.5%.

Q: And the viability, T/C (second compound 0.01 µM, first compound 0.1 µM)?
A: The viability, T/C was 72.5%.

Q: What about the viability, T/C (second compound 0.01 µM, first compound 0.316 µM) of the same compound?
A: Its viability, T/C is 53.8%.

Q: What about the viability, T/C (second compound 0.01 µM, first compound 1 µM) of the same compound?
A: Its viability, T/C is 45.8%.

Q: What about the viability, T/C (second compound 0.01 µM, first compound 3.16 µM) of the same compound?
A: The viability, T/C was 37.2%.

Q: And the viability, T/C (second compound 0.01 µM, first compound 10 µM)?
A: Its viability, T/C is 22.3%.

Q: And the viability, T/C (second compound 0.0316 µM, first compound 0.0316 µM)?
A: Its viability, T/C is 29%.

Q: And the viability, T/C (second compound 0.0316 µM, first compound 0.1 µM)?
A: The viability, T/C was 24.9%.

Q: What about the viability, T/C (second compound 0.0316 µM, first compound 0.316 µM) of the same compound?
A: Its viability, T/C is 40.3%.

Q: And the viability, T/C (second compound 0.0316 µM, first compound 1 µM)?
A: The viability, T/C was 17.9%.

Q: And the viability, T/C (second compound 0.0316 µM, first compound 3.16 µM)?
A: The viability, T/C was 17.2%.

Q: And the viability, T/C (second compound 0.0316 µM, first compound 10 µM)?
A: Its viability, T/C is 13.7%.

Q: What about the viability, T/C (second compound 0.1 µM, first compound 0.0316 µM) of the same compound?
A: Its viability, T/C is 16.9%.

Q: And the viability, T/C (second compound 0.1 µM, first compound 0.1 µM)?
A: The viability, T/C was 13.9%.

Q: What about the viability, T/C (second compound 0.1 µM, first compound 0.316 µM) of the same compound?
A: Its viability, T/C is 18.2%.

Q: And the viability, T/C (second compound 0.1 µM, first compound 1 µM)?
A: The viability, T/C was 14.3%.

Q: And the viability, T/C (second compound 0.1 µM, first compound 3.16 µM)?
A: Its viability, T/C is 14.1%.

Q: And the viability, T/C (second compound 0.1 µM, first compound 10 µM)?
A: The viability, T/C was 8.48%.

Q: What about the viability, T/C (second compound 0.316 µM, first compound 0.0316 µM) of the same compound?
A: Its viability, T/C is 8.02%.

Q: And the viability, T/C (second compound 0.316 µM, first compound 0.1 µM)?
A: The viability, T/C was 10%.

Q: And the viability, T/C (second compound 0.316 µM, first compound 0.316 µM)?
A: Its viability, T/C is 8.48%.

Q: What about the viability, T/C (second compound 0.316 µM, first compound 1 µM) of the same compound?
A: The viability, T/C was 7.53%.

Q: What about the viability, T/C (second compound 0.316 µM, first compound 3.16 µM) of the same compound?
A: Its viability, T/C is 6.85%.

Q: What about the viability, T/C (second compound 0.316 µM, first compound 10 µM) of the same compound?
A: The viability, T/C was 3.75%.

Q: And the viability, T/C (second compound 1 µM, first compound 0.0316 µM)?
A: The viability, T/C was 3.46%.

Q: And the viability, T/C (second compound 1 µM, first compound 0.1 µM)?
A: The viability, T/C was 4.26%.

Q: And the viability, T/C (second compound 1 µM, first compound 0.316 µM)?
A: Its viability, T/C is 3.88%.

Q: And the viability, T/C (second compound 1 µM, first compound 1 µM)?
A: Its viability, T/C is 3.78%.

Q: What about the viability, T/C (second compound 1 µM, first compound 3.16 µM) of the same compound?
A: Its viability, T/C is 3.18%.

Q: What about the viability, T/C (second compound 1 µM, first compound 10 µM) of the same compound?
A: Its viability, T/C is 1.67%.

Q: How did the viability, T/C (compound 3.16 µM) turn out when `CNC(=O)c1ccc(N2C(=S)N(c3ccc(C#N)c(C(F)(F)F)c3)C(=O)C2(C)C)cc1F` was run?
A: Its viability, T/C is 106% [middle of 4 runs].

Q: What about the IC50 (curve of compound) of the same compound?
A: Its IC50 is greater than 10000 nM.

Q: What does the source list for `C#Cc1c(F)ccc2cc(O)cc(-c3ncc4c(N5CC6CCC(C5)N6)nc(OCC56CCCN5CC(F)C6)nc4c3F)c12` (stereo unspecified)?
A: viability, T/C (compound 0.0316 µM): 89.8% and 97.7% and 83.1%; viability, T/C (compound 0.1 µM): 91.7% and 82.7% and 95.5%; viability, T/C (compound 0.316 µM): 124% and 84% and 113%; viability, T/C (compound 1 µM): 95.2% and 62.6% and 64%; viability, T/C (compound 3.16 µM): 61.5% and 78.3% and 73.5%; viability, T/C (compound 10 µM): 36.6% and 30.7% and 31.1%; IC50 (curve of compound): 5360 nM and 5460 nM and 5560 nM
